Patent US20220280473A1, “COMPOSITIONS AND METHODS FOR MODULATING EPITHELIAL-MESENCHYMAL TRANSITION” (AUCKLAND UNISERVICES LIMITED, priority 2021, published 2022)
“Also recorded” adds a separate entry of the source.

Experiments:
Type in all cases: cell-based, Human
[1] = tested on: ARPE-19 cells; experiment: α-SMA expression by quantitative immunocytochemistry after HG+Cyt insult; settings: for α-SMA to RPE65 expression ratio / α-SMA expression (mean fluorescence intensity, compared to untreated levels): ARPE-19, HG+Cyt insult plus tonabersat 100 μM; for α-SMA to RPE65 expression ratio: α-SMA MFI/RPE65 MFI
Description: (§1) Human adult retinal pigment epithelial cells (ARPE-19; American Type Culture Collection, USA) were cultured in Dulbecco's modified Eagle medium F-12 (DMEM-F12; Thermofisher Scientific Inc., USA) supplemented with 10% foetal bovine serum ([…]: Invitrogen, USA) and a 1× antibiotics and antimycotics mixture (AA, 100× stock) at 37° C. in a humidified 5% CO2 incubator. Cells were grown in T75 flasks, and the medium was changed twice per week until confluent.
(§2) At passages 15-18, cells were plated at 2.5×10^5 cells/mL in 8-well chamber slides for immunohistochemical studies, 6-well plates with inserts for fluorescein isothiocyanate (FITC)-dextran dye leak and transepithelial electrical resistance (TEER) measurements, and 24-well plates for cell migration studies. Once confluent, cells were treated as three separate groups: untreated, insult of HG+Cyt, or HG+Cyt insult plus tonabersat treatment (HG+Cyt+Ton). The insult of HG+Cyt was used to induce DR-like conditions as has been previously described (Kuo et al., 2020; Mugisho et al., 2018a, 2018b), and consisted of a combination of 32.5 mM HG and the pro-inflammatory cytokines; tumour necrosis factor alpha (TNF-α; 10 ng/mL; Peprotech, USA) and interleukin-1 beta (IL-1β; 10 ng/mL; Peprotech, USA).
(§3) Tonabersat (MedChemExpress, NJ, USA) was administered at a concentration of 100 μM to cells at the same time as the HG+Cyt insult (HG+Cyt+Ton). To achieve this tonabersat was dissolved in 100% DMSO at a concentration of 100 mM and then 1 μl of the stock solution was added to 999 μl of culture medium containing HG+Cyt. Cells were incubated under treatment conditions for 72 h unless otherwise stated. Brightfield images were taken using a light microscope at 24, 48, and 72 h post-treatment. All experiments were repeated thrice.
Cells were fixed with 4% paraformaldehyde for 10 min and permeabilized with 0.1% Triton X-100 in phosphate-buffered saline (PBS) for 10 min. Cells were blocked in normal goat or horse serum for 1 h, and then incubated overnight at 4° C. with either mouse anti-RPE65 (1:1000; Abcam, UK) and goat anti-α-SMA (1:200; Abcam, UK), or rabbit anti-ZO-1 (1:1000; Invitrogen, USA). Two 10 min washes followed in PBS, after which cells were incubated at room temperature for 2 h with their respective secondary antibodies; donkey anti-rabbit Alexa-488 (1:500; Abcam, UK), donkey anti-mouse Alexa-488 (1:500; Abcam, UK) or donkey anti-goat Cy3 (1:500; Invitrogen, USA). Cells were washed in PBS twice for 10 min. Cell nuclei were stained with DAPI (1:1000; Sigma-Aldrich, USA), and slides were mounted using Citifluor™ anti-fade reagent and sealed with nail varnish.
Fluorescence images were taken on an Olympus FV1000 confocal laser scanning microscope (Olympus, Japan), and processed using Olympus FV10-ASW viewer and ImageJ software (Version 1.52a, National Institute of Health, USA). Five images were taken from a single chamber per condition and repeated in three separate experiments. RPE65 and α-SMA expression was quantified by measuring the mean fluorescence intensity (MFI). Data is presented relative to the respective untreated group. The ratio of α-SMA to RPE65 expression was additionally calculated by (α-SMA MFI/RPE65 MFI). ZO-1 was qualitatively assessed for changes in localisation.

[2] = tested on: ARPE-19 cells; experiment: Cx43 cell membrane localization, immunolabelling; settings: ARPE-19, HG+Cyt insult plus tonabersat, qualitative
[3] = tested on: ARPE-19 cells; experiment: RPE65 expression by quantitative immunocytochemistry after HG+Cyt insult
Description: as §1
(§4) At passages 15-18, cells were plated at 2.5×10^5 cells/mL in 8-well chamber slides for immunohistochemical studies, 6-well plates with inserts for fluorescein isothiocyanate (FITC)-dextran dye leak and transepithelial electrical resistance (TEER) measurements, and 24-well plates for cell migration studies. Once confluent, cells were treated as three separate groups: untreated, insult of HG+Cyt, or HG+Cyt insult plus tonabersat treatment (HG+Cyt+Ton). […]
(§5) Fluorescence images were taken on an Olympus FV1000 confocal laser scanning microscope (Olympus, Japan), and processed using Olympus FV10-ASW viewer and ImageJ software (Version 1.52a, National Institute of Health, USA). […] RPE65 and α-SMA expression was quantified by measuring the mean fluorescence intensity (MFI). […] The ratio of α-SMA to RPE65 expression was additionally calculated by (α-SMA MFI/RPE65 MFI). ZO-1 was qualitatively assessed for changes in localisation.

[4] = tested on: ARPE-19 cells; experiment: Cell migration (scrape wound) assay after HG+Cyt insult; settings: ARPE-19, HG+Cyt plus tonabersat 100 μM
Description: as §1, §2
Tonabersat (MedChemExpress, NJ, USA) was administered at a concentration of 100 μM to cells at the same time as the HG+Cyt insult (HG+Cyt+Ton). […]
To determine cell migration rates following 72 h treatment, a scrape wound was created in the cell monolayer by drawing a 1000 μL pipette tip vertically over the cells by hand, and the width of the wound measured over time. […] The width of the scrape was measured with the line tool and “measure” feature in ImageJ at eight regular intervals (guided using a grid overlay) within each image. […] The scrape wound width was quantified relative to the post-scrape width at time 0 h and converted to a percentage scrape closure for each condition. […]

[5] = tested on: ARPE-19 cells; experiment: Transepithelial electrical resistance (TEER) of cell monolayer; settings: ARPE-19 monolayer, HG+Cyt plus tonabersat 100 μM
Description: as §1, §2, §3
To determine the effect of conditions on the TEER of the cell monolayer, cells were again seeded into the inserts of 6-well Transwell® plates (Corning Incorporated, USA), with additional medium in the base. […] TEER values were quantified relative to the 0 h values for each respective group. […]

[6] = tested on: ARPE-19 cells; experiment: ZO-1 tight junction localisation, immunocytochemistry; settings: ARPE-19, HG+Cyt insult plus tonabersat 100 μM, qualitative
Description: as §1, §4, §5

[7] = tested on: ARPE-19 cells; experiment: TGF-β1 and TGF-β2 release after HG+Cyt insult; settings: HG+Cyt insult plus tonabersat

SMILES: CC(=O)c1ccc2c(c1)[C@H](NC(=O)c1ccc(F)c(Cl)c1)[C@H](O)C(C)(C)O2 [tonabersat, N-[(3S,4S)-6-acetyl-3-hydroxy-2,2-dimethyl-3,4-dihydrochromen-4-yl]-3-chloro-4-fluorobenzamide]
- α-SMA to RPE65 expression ratio ([1]; 24 h): 1.1
- α-SMA expression (mean fluorescence intensity, compared to untreated levels) ([1]; 72 h): 75.5±8.4%
- α-SMA expression (mean fluorescence intensity, compared to untreated levels) ([1]; 72 h, listed as HG+Cyt+Ton): significantly reduced
- α-SMA to RPE65 expression ratio ([1]; 72 h): 0.8
- α-SMA expression increase and striation following HG+Cyt insult (immunolabelling images) ([1]; ARPE-19, addition of tonabersat, FIG. 2 qualitative): changes were prevented
- Cx43 cell membrane localization [2]: maintained Cx43 localization
- RPE65 expression (mean fluorescence intensity relative to untreated group) ([3]; ARPE-19, HG+Cyt insult plus tonabersat 100 μM, 72 h, comparison with HG+Cyt and untreated groups, listed as HG+Cyt+Ton): not being significantly different to either group; also recorded: no statistically significant difference
- RPE65 expression decrease following HG+Cyt insult (immunolabelling images) ([3]; ARPE-19, co-application of tonabersat, FIG. 2 qualitative): prevented
- scrape wound percentage closure ([4]; 4 h post-scrape vs 0 h scrape width): no significant difference in percentage closure
- scrape wound percentage closure ([4]; 24 h post-scrape relative to 0 h width): 33.8±9.6%
- scrape wound percentage closure ([4]; 24 h post-scrape relative to 0 h width, listed as HG+Cyt+Ton): reduction in scrape wound closure
- TEER relative to 0 h value ([5]; 24 h): 99.5±1.2%
- TEER relative to 0 h value ([5]; 48 h): 114.9±3.2%
- TEER relative to 0 h value ([5]; 72 h): 97.7±1.1%
- ZO-1 cell membrane localization [6]: maintained ZO-1 localization at the cell membrane; also recorded: prevented loss of ZO-1 cell membrane localization
- HG+Cyt induced TGF-β2 release ([7]; 24 h): prevented HG+Cyt induced TGF-β2 release back to untreated levels
- TGF-β1 and 2 levels ([7]; 72 h): no significant differences between all groups
